Columns and labels:
[1] = tested on: patient-derived xenografts of human LADC; assay: Therapeutic trial in patient-derived xenografts of human LADC; assay type: in vivo, NSG mice
From the text: Patient-derived xenografts. The tumor samples were obtained from surgically resected specimens after informed consent under the UCLA Lung SPORE (PDX #004 and #011) or the Long Beach Memorial Hospital Institutional Review Board protocol (PDX #013). One of the PDXs (#186) was purchased from the Jackson laboratories. PDXs were established and passaged in NSG mice. NSG mice were procured from the UCLA Radiation Oncology breeding colony. For each mouse, two small pieces of tumor tissue (4 mm^3) were implanted subcutaneously in the flank regions.
Patient-derived xenografts. The mice were randomized in two therapeutic groups (same as for the trials in GEMMs): placebo and canagliflozin (30 mg/kg per day) The number of mice per group was four for PDX #011, eight for PDX #013, three for PDX #004, and five for PDX #186; each mouse was inoculated with two tumors (one tumor on each flank). Some of the tumors of PDX #011 developed soft tissue metastases in the axillary regions, and these were counted as separate tumors. Overall, 38 tumors were included in the placebo and 39 tumors in the canagliflozin group. […] The tumor volumes at 2 weeks were counted as final tumor volumes.
Mice were imaged by Me4FDG and FDG PET/CT before treatment and 2 weeks after starting treatment. […] The mice were sacrificed, and the tumors were analyzed after 1 month of treatment. […]

[2] = tested on: patient-derived xenografts of human LADC; assay: Me4FDG and FDG microPET in PDXs before and 2 weeks after the beginning of treatment; assay type: in vivo, NSG mice; settings: canagliflozin 30 mg/kg per day
Protocol: For the microPET in PDXs, a subset of the mice (PDXs #004, #013, and #186) received both Me4FDG and FDG PET scans the day before and 2 weeks after the beginning of treatment to evaluate the response of glucose transporter activity to the treatment.
The animals were anesthetized with 1.5% (v/v) isoflurane in oxygen, were given a dose of 100 μCi of Me4FDG or FDG via tail vein injection, and were maintained under anesthesia for 1 hour of unconscious uptake. The mice were then immobilized on the imaging bed and received a 10-min static PET scan followed by a CT scan. Each mouse received two different PET scans with the two tracers (Me4FDG and FDG) on consecutive days to allow for tracer decay. The equipments used were Focus 220 microPET scanner (Concorde Microsystems) and Inveon microPET scanner (Siemens) for the microPET scans and CrumpCAT (UCLA Crump Institute) for the microCT.
The PET data were analyzed with AMIDE software version 1.0.4 (amide.sourceforge.net/) (55). […] The percentage of injected dose for each ROI was calculated by dividing the measured activity in the ROI by the total injected dose, as measured from the PET image by designing an ROI encompassing the whole mouse. […] Briefly, we evaluated the background signal for each mouse by designing a ROI corresponding to the normal lung. We then calculated the CNR for each nodule by using the following formula (31)

SGLT2 = SGLT2 (Homo sapiens, UniProt P31639); settings: reference 39; cited from earlier work
[3] = tested on: lung tumors in KPluc mice; assay: Therapeutic trials in the KPluc genetically engineered mouse model of LADC; settings: vs placebo

SMILES: Cc1ccc([C@@H]2O[C@H](CO)[C@@H](O)[C@H](O)[C@H]2O)cc1Cc1ccc(-c2ccc(F)cc2)s1 [canagliflozin]
- final tumor volumes lower than the control mice ([1]; 30 mg/kg per day oral gavage for 1 month, four PDXs, P=0.003): about 47%
- geometric mean ratio of final tumor volumes, treated vs control ([1]; 95% confidence interval 0.36 to 0.80, P=0.003, adjusted for trial and mouse random effects): 0.53
- FDG signal from day 0 to day 14 [2]: did not significantly change
- Me4FDG uptake from day 0 to day 14 ([2]; P<0.001): significantly reduced
- effectiveness as SGLT2 inhibitor compared with dapagliflozin (SGLT2): more effective SGLT2 inhibitor than dapagliflozin
- Tumor burden estimated by bioluminescence imaging (BLI) ([3]; 30 mg/kg per day oral gavage from 2 weeks after tumor induction, P<0.001): significantly lower
- onset of tumors (BLI signal up to week 8) ([3]; 30 mg/kg per day oral gavage, P<0.001): significantly delayed
- tumor burden by histological analysis of the lungs and measurement of tumor area ([3]; at 8 weeks and in the survival cohort, P<0.05): significantly lower tumor burden
- mouse survival ([3]; treated until death, n=15 per group, P=0.0003): significantly prolonged
- Ki67 proliferation rate in solid LADCs [3]: not in solid LADCs
- Ki67 proliferation rate in premalignant lesions ([3]; P=0.001): significantly lower
